Source: ChEMBL document CHEMBL1136171, “Acetylenic TACE inhibitors. Part 1. SAR of the acyclic sulfonamide hydroxamates” (Bioorg Med Chem Lett, 2003)

Tests used:
[1] = tested on: THP-1; experiment: Inhibition of LPS-stimulated production of TNF-alpha at the dose of 3 uM concentration; format: functional; settings: Homo sapiens
[2] = target: T1, Interstitial collagenase (Homo sapiens) (UniProt P03956); experiment: Inhibition of Matrix metalloprotein 1 at 10 uM
T1 sequence (whole entry): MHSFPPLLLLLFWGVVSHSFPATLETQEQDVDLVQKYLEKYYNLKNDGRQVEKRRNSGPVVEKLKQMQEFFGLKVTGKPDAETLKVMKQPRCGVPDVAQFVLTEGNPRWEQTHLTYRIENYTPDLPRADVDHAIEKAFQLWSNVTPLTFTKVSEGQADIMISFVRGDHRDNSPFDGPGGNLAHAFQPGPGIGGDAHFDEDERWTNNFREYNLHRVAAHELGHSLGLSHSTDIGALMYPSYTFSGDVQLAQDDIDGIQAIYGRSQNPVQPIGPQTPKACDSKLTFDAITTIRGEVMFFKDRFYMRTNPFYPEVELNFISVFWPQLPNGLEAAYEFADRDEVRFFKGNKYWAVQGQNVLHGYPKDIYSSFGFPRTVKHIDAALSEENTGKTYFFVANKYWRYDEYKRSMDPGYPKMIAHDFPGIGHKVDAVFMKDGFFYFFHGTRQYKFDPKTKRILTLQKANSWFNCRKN

[3] = tested on: THP-1; experiment: Inhibition of LPS-stimulated production of TNF-alpha, at the dose of 1 uM concentration; format: functional; settings: for inhibition at 1 µM: Homo sapiens, THP-1
[4] = target: T2, Disintegrin and metalloproteinase domain-containing protein 17 (Homo sapiens, UniProt P78536); experiment: In vitro inhibition of tumor necrosis factor-alpha converting enzyme
T2 sequence (P78536 whole entry, the tested form may be a part): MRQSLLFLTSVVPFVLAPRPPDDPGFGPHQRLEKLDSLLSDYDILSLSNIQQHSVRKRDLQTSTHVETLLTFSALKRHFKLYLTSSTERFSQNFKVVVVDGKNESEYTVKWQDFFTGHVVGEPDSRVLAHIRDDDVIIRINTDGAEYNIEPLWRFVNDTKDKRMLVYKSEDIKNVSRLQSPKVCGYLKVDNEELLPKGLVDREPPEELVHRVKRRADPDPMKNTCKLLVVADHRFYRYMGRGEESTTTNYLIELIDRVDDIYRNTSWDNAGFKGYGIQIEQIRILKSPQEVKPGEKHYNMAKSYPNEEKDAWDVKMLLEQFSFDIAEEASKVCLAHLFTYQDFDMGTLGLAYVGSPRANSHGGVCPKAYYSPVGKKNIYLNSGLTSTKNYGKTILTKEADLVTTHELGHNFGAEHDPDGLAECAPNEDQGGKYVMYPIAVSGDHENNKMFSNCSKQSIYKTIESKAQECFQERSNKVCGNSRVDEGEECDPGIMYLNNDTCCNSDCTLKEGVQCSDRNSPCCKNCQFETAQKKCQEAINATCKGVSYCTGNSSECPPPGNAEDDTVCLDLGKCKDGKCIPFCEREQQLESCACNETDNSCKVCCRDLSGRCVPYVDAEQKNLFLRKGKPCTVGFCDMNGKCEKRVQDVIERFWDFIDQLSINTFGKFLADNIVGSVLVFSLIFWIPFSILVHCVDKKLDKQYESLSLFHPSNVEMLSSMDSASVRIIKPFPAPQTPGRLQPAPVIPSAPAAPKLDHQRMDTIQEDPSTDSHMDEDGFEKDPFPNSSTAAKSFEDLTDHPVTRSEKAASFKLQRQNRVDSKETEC

[5] = target: T3, Interstitial collagenase (Homo sapiens, UniProt P03956); experiment: In vitro inhibition of Matrix metalloprotein 1
T3 sequence (P03956 whole entry): T1 sequence (whole entry)

[6] = target: Collagenase 3 (Homo sapiens, UniProt P45452)
Description: In vitro inhibition of Matrix metalloprotein 13

[7] = tested on: Mus musculus; experiment: In vivo percent inhibition against LPS-stimulated production of TNF-alpha in a mouse at a dose of 50 mg/Kg p.o.; format: functional; settings: po, read-out: Inhibition
[8] = target: Matrix metalloproteinase-9 (Homo sapiens, UniProt P14780)
Matrix metalloproteinase-9, sequence (P14780 whole entry, the tested form may be a part): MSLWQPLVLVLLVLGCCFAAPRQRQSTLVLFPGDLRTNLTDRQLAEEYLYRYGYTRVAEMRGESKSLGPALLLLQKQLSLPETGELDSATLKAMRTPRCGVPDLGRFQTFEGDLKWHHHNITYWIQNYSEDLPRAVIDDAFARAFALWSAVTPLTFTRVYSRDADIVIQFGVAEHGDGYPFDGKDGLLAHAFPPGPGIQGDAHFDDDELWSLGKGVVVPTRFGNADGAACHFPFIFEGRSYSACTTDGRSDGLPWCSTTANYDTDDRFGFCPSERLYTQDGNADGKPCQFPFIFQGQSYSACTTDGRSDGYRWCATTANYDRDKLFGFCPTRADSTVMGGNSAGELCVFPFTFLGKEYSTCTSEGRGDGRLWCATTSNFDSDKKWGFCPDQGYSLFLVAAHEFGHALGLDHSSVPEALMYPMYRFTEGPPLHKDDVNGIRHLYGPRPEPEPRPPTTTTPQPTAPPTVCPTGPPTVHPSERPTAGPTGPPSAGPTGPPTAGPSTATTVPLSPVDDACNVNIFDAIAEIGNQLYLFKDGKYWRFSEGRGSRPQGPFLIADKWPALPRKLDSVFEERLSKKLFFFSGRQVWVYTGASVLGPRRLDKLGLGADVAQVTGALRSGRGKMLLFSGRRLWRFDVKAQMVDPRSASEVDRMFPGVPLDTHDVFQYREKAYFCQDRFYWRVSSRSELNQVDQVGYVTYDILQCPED
Description: In vitro inhibition of Matrix metalloprotein-9

[9] = target: T2, Disintegrin and metalloproteinase domain-containing protein 17; experiment: Inhibition of tumor necrosis factor-alpha converting enzyme; settings: concentration not given here
[10] = Oral bioavailability in rat at 10 mg/kg of the compound; format: ADME, organism-based; settings: in vivo
[11] = Oral bioavailability in monkey at 10 mg/kg of the compound; format: ADME, organism-based; settings: cercopithecidae, in vivo
[12] = Oral bioavailability in dog at 10 mg/kg of the compound; format: ADME, organism-based, Canis lupus familiaris; settings: in vivo
[13] = Oral bioavailability in mouse at 10 mg/kg of the compound; format: ADME, organism-based; settings: in vivo
[14] = organism: Homo sapiens; experiment: Inhibitory concentration against LPS-stimulated TNF-alpha production in human whole blood; format: functional
[15] = organism: Mus musculus; experiment: Effective dose in mouse; format: functional
[16] = tested on: Mus musculus; experiment: Compound was reproducibly active at reducing clinical severity scores expressed as efficacy in mouse p.o.; format: functional
[17] = tested on: Mus musculus; experiment: Compound was reproducibly active at reducing clinical severity scores in mouse p.o.; format: functional

Row | Structure (SMILES) | inhibition at 1 µM [3] [%] | IC50 [4] [µM] | IC50 [5] [µM] | IC50 [6] [µM] | IC50 [8] [µM] | also measured
1 | CC#CCOc1ccc(S(=O)(=O)N(C)CCC(=O)NO)cc1 |  |  |  |  |  | inhibition at 3 µM [1]: 9%
2 | CC#CCOc1ccc(S(=O)(=O)NCC(=O)NO)cc1 | 15 | 0.005 |  |  |  | inhibition [2]: 47%
3 | CC#CCOc1ccc(S(=O)(=O)N(C)[C@@H](C(=O)NO)C(C)C)cc1 | 79 | 0.015 | 0.259 | 0.038 |  | 
4 | CC#CCOc1ccc(S(=O)(=O)N[C@H](C)C(=O)NO)cc1 | 40 | 0.004 | 4.03 | 0.195 | 0.796 | inhibition in vivo at 50 mg/kg [7]: > 75%
5 | CC#CCOc1ccc(S(=O)(=O)N[C@@H](C(=O)NO)c2ccc(OCCNC)cc2)cc1 | 48 |  | 10 |  |  | 
6 | CC#CCOc1ccc(S(=O)(=O)NC(C)(C)C(=O)NO)cc1 | 9 |  |  |  |  | 
7 | CC#CCOc1ccc(S(=O)(=O)NCCC(=O)NO)cc1 |  |  |  |  |  | inhibition at 3 µM [1]: 0%
8 | CC#CCOc1ccc(S(=O)(=O)N(C)[C@@H](C(=O)NO)c2ccc(OCCNC)cc2)cc1 | 87 |  |  |  |  | inhibition in vivo at 50 mg/kg [7]: > 75%
9 | CN(CC(=O)NO)S(=O)(=O)c1ccc(CCC#N)cc1 |  |  | > 10 | 0.207 | 0.074 | inhibition [9]: 6%; inhibition at 3 µM [1]: 7%
10 | CC#CCOc1ccc(S(=O)(=O)NC(C(=O)NO)C(C)(C)SCc2cccnc2)cc1 (stereo not given) | 49 | 0.006 | 0.476 | 0.008 | 0.13 | 
11 | CC#CCOc1ccc(S(=O)(=O)N(C)[C@H](C)C(=O)NO)cc1 |  | 0.005 | 0.33 | 0.028 | 0.068 | Inhibition [3]: 60%
12 | CC#CCOc1ccc(S(=O)(=O)N(C)C(C(=O)NO)C(C)(C)SCc2cccnc2)cc1 (stereo not given) | 52 | 0.054 |  | 0.002 | 0.004 | 
13 | C#CCNc1ccc(S(=O)(=O)N(C)CC(=O)NO)cc1 |  |  | ~10 |  |  | 
14 | CC#CCOc1ccc(S(=O)(=O)N(CC(=O)NO)Cc2cccnc2)cc1 | 45 |  |  |  |  | 
15 | CC#CCOc1ccc(S(=O)(=O)N[C@@H](C(=O)NO)C(C)(C)C)cc1 | 78 |  |  |  |  | inhibition in vivo at 50 mg/kg [7]: > 75%
16 | CC#CCOc1ccc(S(=O)(=O)N[C@@H](C(=O)NO)C(C)C)cc1 | 58 | 0.01 | 2.96 | 0.018 | 0.042 | 
17 | CC#CCOc1ccc(S(=O)(=O)NC(CSCc2cccnc2)C(=O)NO)cc1 (stereo not given) | 56 | 0.003 | 1.91 | 0.028 | 0.16 | 
18 | CC#CCOc1ccc(S(=O)(=O)N[C@@H](C(=O)NO)C(C)O)cc1 (stereo not given in full) | 50 | 0.01 | 2.47 | 0.086 | 0.777 | bioavailability [10]: 46%; bioavailability [11]: 17%; bioavailability [12]: 75%; bioavailability [13]: 100%; IC50 [14]: 1 µM; ED50 [15]: 3 mg/kg; Activity [16]: 20 mg/kg; Activity [17]: 10 mg/kg
19 | CC#CCOc1ccc(S(=O)(=O)N(C)CC(=O)NO)cc1 | 22 | 0.007 |  |  |  | 
20 | CC#CCOc1ccc(S(=O)(=O)N(C)C(CSCc2cccnc2)C(=O)NO)cc1 (stereo not given) | 80 |  |  | 0.005 |  | 
